{
  "source": "patent US12440541B2",
  "about": "“Methods for expanding and activating γσ T cells for the treatment of cancer and related malignancies” (priority 2017, dated 2025)",
  "test_system": "γδ T cells",
  "test": "γδ T cell expansion in defined medium",
  "assay_type": "cell-based, human",
  "settings": "defined medium with IL-2, IL-15, Amphotericin B",
  "data": [
    {"compound": "O=P(O)(O)C(O)(Cn1ccnc1)P(=O)(O)O", "note": "[Zoledronate, Zoledronic acid]", "values": [
      {"measurement": "fold increase in absolute number of γδ T cells", "setting": "Donor 20, Day 0 to Day 17", "value": "3,350 fold"},
      {"measurement": "fold increase in absolute number of γδ T cells", "setting": "Donor 20, Day 0 to Day 22", "value": "11,060 fold"},
      {"measurement": "fold increase in absolute number of γδ T cells", "setting": "Donor 20, Day 0 to Day 29", "value": "31,666 fold"},
      {"measurement": "fold increase in absolute number of γδ T cells", "setting": "Donor 21, Day 0 to Day 17", "value": "4,633 fold"},
      {"measurement": "fold increase in absolute number of γδ T cells", "setting": "Donor 21, Day 0 to Day 22", "value": "12,320 fold"},
      {"measurement": "fold increase in absolute number of γδ T cells", "setting": "Donor 21, Day 0 to Day 29", "value": "32,833 fold"}
    ]}
  ]
}
